Measurements taken from patent US10266544B2, “Aryl substituted aminomethyl spectinomycin analogs as antibacterial agents” (ST. JUDE CHILDREN'S RESEARCH HOSPITAL, INC., priority 2013, dated 2019).
Where a name gives a salt, the structure may show the parent alone. Read-outs that look alike come from different tables or passages of the source.

Key:
S. pneumoniae = assay: Resistance frequency determination and cross resistance of spontaneous mutants; format: cell-based, Streptococcus pneumoniae; details: cross resistance testing of 2 mutants
[1] = system: Bacillus anthracis, Sterne 34F2; assay: microbe, parasite or virus in culture; format: cell-based; details: STERNE34F2, read-out: MIC B.a.
[2] = system: Bacillus subtilis (ATCC 23857); assay: MIC determination, microbroth dilution; format: cell-based; details: ATCC23857; Bacillus subtilis (ATCC 23857); read-out: MIC B.s.
[3] = system: Enterococcus faecalis (ATCC 33186); assay: MIC determination, microbroth dilution; format: cell-based
[4] = system: Staphylococcus aureus (ATCC 29213); assay: MIC determination, microbroth dilution; format: cell-based; details: ATCC29213; Staphylococcus aureus (ATCC 29213); read-out: MIC S.a.
[5] = system: MRSA, Staphylococcus aureus (NRS70); assay: MIC determination, microbroth dilution; format: cell-based; details: read-out: MIC MRSA
[6] = system: Streptococcus pneumoniae (R6); assay: MIC determination, microbroth dilution; format: cell-based
[7] = system: Streptococcus pyogenes (ATCC 700294); assay: MIC determination, microbroth dilution; format: cell-based; details: ATCC700294; Streptococcus pyogenes (ATCC 700294); read-out: MIC S. py.
[8] = system: acinetobacter baumannii (ATCC 19606); assay: MIC determination, microbroth dilution; format: cell-based; details: ATCC19606
[9] = system: Burkholderia cepacia (ATCC 25416); assay: MIC determination, microbroth dilution; format: cell-based; details: Burkholderia cepacia
[10] = system: Escherichia coli (ATCC 700926); assay: MIC determination, microbroth dilution; format: cell-based; details: ATCC700926; Escherichia coli (ATCC 700926); read-out: MIC E.c.
E. coli K12 ΔtolC = assay: microbe, parasite or virus in culture; format: cell-based; details: Escherichia coli, read-out: MIC E.c. Δtolc
[11] = system: Klebsiella pneumoniae (ATCC 33495); assay: MIC determination, microbroth dilution; format: cell-based; details: ATCC33495
[12] = system: Pseudomonas aeruginosa (PA01); assay: MIC determination, microbroth dilution; format: cell-based
[13] = system: Proteus mirabilis (ATCC 25933); assay: MIC determination, microbroth dilution; format: cell-based; details: ATCC25933
[14] = system: Proteus vulgaris (ATCC 33420); assay: MIC determination, microbroth dilution; format: cell-based; details: ATCC33420
[15] = system: Stenotrophomonas maltophilia (ATCC 13637); assay: MIC determination, microbroth dilution; format: cell-based; details: ATCC13637; Stenotrophomonas maltophilia (ATCC 13637); read-out: MIC S.m.
[16] = system: Haemophilus influenza (ATCC 49247); assay: microbe, parasite or virus in culture; format: cell-based; details: ATCC49247; Haemophilus influenza; 4 μg per disc; range of at least two experiments; read-out: Zone of inhibition H.i.
[17] = system: Legionella pneumophila (ATCC 33153); assay: microbe, parasite or virus in culture; format: cell-based; details: ATCC33153, 72 h, read-out: Zone of inhibition L.p.
[18] = system: Neisseria meningitides (ATCC 13077); assay: Disc diffusion assay; format: cell-based; details: ATCC13077, 4 μg per disc, read-out: Zone of inhibition N.m.
[19] = system: Neisseria gonorrhoeae (ATCC 49226); assay: Disc diffusion assay; format: cell-based; details: ATCC49226, 4 μg per disc, read-out: Zone of inhibition N.g.
[20] = system: Neisseria gonorrhoeae (ATCC 49226); assay: Agar MIC determination (Alamar Blue); format: cell-based; details: ATCC49226, agar MIC, read-out: MIC N.g.
Bacillus anthracis = assay: microbe, parasite or virus in culture; format: cell-based; details: read-out: MIC B.a.
Yersinia pestis = assay: microbe, parasite or virus in culture; format: cell-based; details: read-out: MIC Y.p.
[21] = system: live vaccine strain (LVS) of Francisella tularensis; assay: microbe, parasite or virus in culture; format: cell-based; details: Francisella tularensis, read-out: MIC F.t.
[22] = system: Streptococcus pneumoniae clinical isolates representing several serotypes; assay: MIC determination, Streptococcus pneumoniae panel of clinical isolates (Table 7); format: cell-based; details: Streptococcus pneumoniae
[23] = system: M. tuberculosis clinical isolates; assay: microbe, parasite or virus in culture; format: cell-based; details: Mycobacterium tuberculosis, H37RV, read-out: MIC H37Rv
Listeria monocytogenes = assay: MIC determination (Table 6); format: cell-based
Moraxella catarrhalis = assay: MIC determination (Table 6); format: cell-based
[24] = Streptococcus pneumoniae (R6), read-out: MIC S. pn.
[25] = Streptococcus pneumoniae, S. pneumoniae R6, Drug Susceptible, read-out: MIC R6
[26] = ATCC25416, read-out: MIC B.c., Burkholderia cepacia (ATCC 25416)
[27] = ATCC25416, read-out: MIC B.c., Burkholderia cepacia, Table 6
[28] = BAA1407, S. pneumoniae BAA-1407, Macrolide Resistant, read-out: MIC BAA-1407
[29] = S. pneumoniae A66.1x, Drug Susceptible, read-out: MIC A66.1x
[30] = S. pneumoniae BHN97x, Drug Susceptible, read-out: MIC BHN97x
[31] = S. pneumoniae D39X, Drug Susceptible, read-out: MIC D39X
[32] = S. pneumoniae Daw7, PenG Resistant, read-out: MIC Daw7
[33] = S. pneumoniae Daw8, PenG Resistant, read-out: MIC Daw8
[34] = S. pneumoniae Daw9, PenG Resistant, read-out: MIC Daw9
[35] = S. pneumoniae Daw62, PenG Resistant, read-out: MIC Daw62
[36] = S. pneumoniae Daw64, PenG Resistant, read-out: MIC Daw64
[37] = S. pneumoniae OVA6, Macrolide Resistant, read-out: MIC OVA6
[38] = S. pneumoniae T4X, Drug Susceptible, read-out: MIC T4X

In the case of `NCC[C@H](O)C(=O)N[C@@H]1C[C@H](N)[C@@H](O[C@H]2O[C@H](CN)[C@@H](O)[C@H](O)[C@H]2O)[C@H](O)[C@H]1O[C@H]1O[C@H](CO)[C@@H](O)[C@H](N)[C@H]1O` [amikacin], the “susceptibility of mutants resistant to 2” value (S. pneumoniae) was “susceptible”.

With `CC1(C)S[C@@H]2[C@H](NC(=O)[C@H](N)c3ccccc3)C(=O)N2[C@H]1C(=O)O` [ampicillin] the “susceptibility of mutants resistant to 2” value (S. pneumoniae) was “susceptible”.

Work on `CCc1ccc(CNC[C@]2(O)C[C@@H](C)O[C@H]3O[C@@H]4[C@@H](O)[C@H](NC)[C@H](O)[C@H](NC)[C@H]4O[C@]32O)cc1` [compound 3, 3′-(R)-3′-[(4-ethyl)benzylaminomethyl)]dihydrospectinomycin Trihydrochloride] yielded an MIC [1] of 12.5 to 25 µg/mL, an MIC [2] of 3.1 to 6.3 µg/mL and an MIC ([3]; Enterococcus faecalis, ATCC33186, read-out: MIC E.f.) of 12.5 to 25 µg/mL. The MIC [4] was 50 µg/mL, the MIC ([5]; Staphylococcus aureus) was 12.5 to 25 µg/mL and the MIC [6, 24] was 1.6 to 3.1 µg/mL. The MIC [6, 25] was 3.1 µg/mL, the MIC [7] was 1.6 to 3.1 µg/mL and the MIC [8] was 200 µg/mL. It also gave an MIC [9, 26] of over 200 µg/mL, an MIC [9, 27] of over 200 µg/mL and an MIC [10] of 12.5 to 25 µg/mL. For the same compound, the MIC (E. coli K12 ΔtolC) was 6.3 µg/mL, the MIC [11] was 100 to 200 µg/mL and the MIC [12] was 100 to 200 µg/mL. The MIC [13] was 100 to 200 µg/mL, the MIC [14] was 25 to 50 µg/mL and the MIC [15] was 12.5 µg/mL. For the same compound, the zone of inhibition at 4 µg/disc [16] was 15 to 17 mm, the zone of inhibition at 4 µg/disc [17] was 28 to 40 mm and the zone of inhibition at 4 µg/disc [18] was 18 mm. It also gave a zone of inhibition at 4 µg/disc [19] of 16 mm, an MIC [20] of 12.5 µg/mL and an MIC (Bacillus anthracis) of 12.5 to 25 µg/mL. The MIC (Yersinia pestis) was over 200 µg/mL, the MIC [21] was 1.6 to 3.1 µg/mL and the MIC [22, 28] was 6.3 µg/mL. The MIC [22, 29] was 1.6 µg/mL, the MIC [22, 30] was 3.1 µg/mL and the MIC [22, 31] was 1.6 µg/mL. The MIC [22, 32] was 6.3 µg/mL, the MIC [22, 33] was 3.1 µg/mL and the MIC [22, 34] was 3.1 µg/mL. It also gave an MIC [22, 35] of 6.3 µg/mL, an MIC [22, 36] of 6.3 µg/mL and an MIC [22, 37] of 6.3 µg/mL. The MIC [22, 38] was 3.1 µg/mL, the MIC [23] was 25 µg/mL and the MIC (Listeria monocytogenes) was 6.3 µg/mL. The MIC (Moraxella catarrhalis) was 3.1 to 6.3 µg/mL.

`CCOc1ccc(CNC[C@]2(O)C[C@@H](C)O[C@H]3O[C@@H]4[C@@H](O)[C@H](NC)[C@H](O)[C@H](NC)[C@H]4O[C@]32O)cc1` [compound 4, 3′-(R)-3′-[(4-ethoxyl)benzylaminomethyl)]dihydrospectinomycin Trihydrochloride] was tested, and the MIC [1] was 100 µg/mL, the MIC [2] was 12.5 to 25 µg/mL and the MIC ([3]; ATCC33186, Enterococcus faecalis (ATCC 33186), read-out: MIC E.f.) was 12.5 to 25 µg/mL. The MIC [4] was 25 to 50 µg/mL, the MIC ([5]; Staphylococcus aureus (NRS70)) was 50 µg/mL and the MIC [6, 24] was 1.6 to 3.1 µg/mL. It also gave an MIC [6, 25] of 1.6 µg/mL, an MIC [7] of 1.6 to 3.1 µg/mL and an MIC [8] of at least 200 µg/mL. It also gave an MIC [9, 26] of over 200 µg/mL, an MIC [9, 27] of over 200 µg/mL and an MIC [10] of 25 to 50 µg/mL. The MIC (E. coli K12 ΔtolC) was 6.3 µg/mL, the MIC [11] was 100 to 200 µg/mL and the MIC [12] was 100 to 200 µg/mL. It also gave an MIC [13] of over 200 µg/mL, an MIC [14] of over 200 µg/mL and an MIC [15] of 25 to 50 µg/mL. It also gave a zone of inhibition at 4 µg/disc [16] of 15 to 18 mm, a zone of inhibition at 4 µg/disc [17] of 18 to 33 mm and a zone of inhibition at 4 µg/disc [18] of 16 to 18 mm. The zone of inhibition at 4 µg/disc [19] was 15 to 17 mm, the MIC [20] was 12.5 µg/mL and the MIC (Bacillus anthracis) was 100 µg/mL. The MIC (Yersinia pestis) was over 200 µg/mL, the MIC [21] was 0.8 to 3.1 µg/mL and the MIC [22, 28] was 6.3 µg/mL. It also gave an MIC [22, 29] of 0.8 µg/mL, an MIC [22, 30] of 1.6 µg/mL and an MIC [22, 31] of 0.8 µg/mL. It also gave an MIC [22, 32] of 3.1 µg/mL, an MIC [22, 33] of 1.6 µg/mL and an MIC [22, 34] of 3.1 µg/mL. The MIC [22, 35] was 3.1 µg/mL, the MIC [22, 36] was 3.1 µg/mL and the MIC [22, 37] was 3.1 µg/mL. For the same compound, the MIC [22, 38] was 1.6 µg/mL, the MIC [23] was 25 µg/mL and the MIC (Listeria monocytogenes) was 6.3 to 12.5 µg/mL. It also gave an MIC (Moraxella catarrhalis) of 3.1 to 6.3 µg/mL.
